Reference: the NIST ThermoML archive (doi:10.1016/j.tca.2008.12.007)

Test: xn = mol fraction of the nth substance listed
Details: 101 kPa, Liquid, Vibrating tube method

C1CCCNCC1 [azacycloheptane] + O
mass density [kg/m3]
Details	313.15 K	318.15 K	323.15 K	333.15 K	343.15 K	348.15 K	353.15 K
x2 = 0.0199	–	860.37	855.9	846.92	837.91	833.38	828.84
x2 = 0.0395	–	861.39	856.9	847.9	838.84	834.3	829.73
x2 = 0.0821	–	863.99	859.48	850.41	841.28	836.69	832.07
x2 = 0.1198	–	866.23	861.7	852.59	843.4	838.79	834.14
x2 = 0.1594	–	868.63	864.08	854.93	845.7	841.06	836.38
x2 = 0.1994	–	871.37	866.81	857.62	848.34	843.67	838.95
x2 = 0.2498	–	874.79	870.21	860.98	851.65	846.94	842.2
x2 = 0.3	882.83	878.26	873.67	864.4	855.03	850.31	845.54
x2 = 0.3499	886.76	882.18	877.58	868.28	858.87	854.12	849.32
x2 = 0.4	890.72	886.14	881.52	872.21	862.76	857.99	853.18
x2 = 0.4529	895.39	890.8	886.19	876.87	867.39	862.6	857.76
x2 = 0.5008	899.86	895.29	890.68	881.36	871.87	867.08	862.24
x2 = 0.5041	899.86	895.28	890.68	881.35	871.87	867.07	862.22
x2 = 0.5508	904.48	899.93	895.33	886.03	876.55	871.76	866.92
x2 = 0.5992	909.37	904.85	900.28	891.02	881.58	876.78	871.95
x2 = 0.65	915.05	910.58	906.06	896.87	887.5	882.74	877.92
x2 = 0.699	920.96	916.55	912.1	903.03	893.76	889.04	884.27
x2 = 0.7496	927.77	923.47	919.11	910.24	901.13	896.49	891.79
x2 = 0.7994	935.59	931.44	927.23	918.61	909.74	905.21	900.62
x2 = 0.8398	942.92	938.93	934.88	926.57	917.97	913.57	909.09
x2 = 0.8799	951.63	947.87	944.03	936.13	927.91	923.42	918.78
x2 = 0.92	962.53	959.11	955.59	948.28	942.9	938.07	933.73
x2 = 0.9599	976.48	973.55	970.5	964.06	958.32	954.48	–
x2 = 0.96	976.54	973.61	970.56	964.12	958.4	954.96	–
x2 = 0.9699	980.66	977.9	975.01	968.88	963.25	–	–
x2 = 0.98	985.06	982.5	979.8	974.02	967.74	964.39	961.1
